Measurements published in the NIST ThermoML archive (doi:10.1016/j.jct.2013.05.009).
± gives the expanded uncertainty stated by the source.

How the values were obtained:
[1] = 101 kPa, Liquid; for speed of sound: Sing-around technique in a fixed-path interferometer; for mass density: Vibrating tube method
[2] = refractive index (Na D-line) (dimensionless); settings: 298.15 K; 101.33 kPa; Liquid; Standard Abbe refractometry
[3] = xn = mol fraction of the nth substance listed; settings: 101 kPa, Liquid; for mass density: Vibrating tube method; for speed of sound: fixed-path interferometer

CC(C)CC(C)(C)C [2,2,4-trimethylpentane]
[1]
Settings	mass density [kg/m3]	speed of sound [m/s]
298.15 K	687.68 ± 0.18	1082.7 ± 1.2
308.15 K	679.45 ± 0.18	1041.1 ± 1.2
318.15 K	671.3 ± 0.18	1000.1 ± 1.2
328.15 K	663.17 ± 0.18	959.4 ± 1.2

Settings	refractive index
[2]	1.38901 ± 0.00072

CC(C)CC(C)(C)C [2,2,4-trimethylpentane] + Cc1ccccc1
[3]
Settings	mass density, 298.15 K [kg/m3]	mass density, 308.15 K [kg/m3]	mass density, 318.15 K [kg/m3]	mass density, 328.15 K [kg/m3]	speed of sound, 298.15 K [m/s]	speed of sound, 308.15 K [m/s]	speed of sound, 318.15 K [m/s]	speed of sound, 328.15 K [m/s]
x1 = 0.2055	811.87 ± 0.14	802.88 ± 0.15	793.92 ± 0.15	784.96 ± 0.15	1235.8 ± 1.2	1193.6 ± 1.2	1151.9 ± 1.2	1110.8 ± 1.2
x1 = 0.403	772.32 ± 0.15	763.58 ± 0.16	754.88 ± 0.16	746.18 ± 0.16	1184.2 ± 1.2	1142.3 ± 1.2	1100.9 ± 1.2	1060.1 ± 1.2
x1 = 0.6062	738.6 ± 0.16	730.06 ± 0.17	721.58 ± 0.17	713.11 ± 0.17	1142.4 ± 1.2	1100.5 ± 1.2	1059.3 ± 1.2	1018.7 ± 1.2
x1 = 0.8001	711.48 ± 0.17	703.11 ± 0.17	694.81 ± 0.18	686.51 ± 0.18	1110 ± 1.2	1068.4 ± 1.2	1027.2 ± 1.2	986.7 ± 1.2

CCCCO [butan-1-ol]
[1]
Settings	mass density [kg/m3]	speed of sound [m/s]
298.15 K	805.74 ± 0.15	1239.9 ± 1.2
308.15 K	798.07 ± 0.15	1206.6 ± 1.2
318.15 K	790.38 ± 0.15	1173.4 ± 1.2
328.15 K	782.58 ± 0.15	1140.4 ± 1.2

Settings	refractive index
[2]	1.39733 ± 0.00072

CCCCO [butan-1-ol] + CC(C)CC(C)(C)C
[3], x2 = 0
Settings	mass density [kg/m3]	speed of sound [m/s]
298.15 K	805.74 ± 0.15	1239.9 ± 1.2
308.15 K	798.07 ± 0.15	1206.6 ± 1.2
318.15 K	790.38 ± 0.15	1173.4 ± 1.2
328.15 K	782.58 ± 0.15	1140.4 ± 1.2

Cc1ccccc1 [toluene]
[1]
Settings	mass density [kg/m3]	speed of sound [m/s]
298.15 K	862.19 ± 0.13	1305.4 ± 1.2
308.15 K	852.88 ± 0.14	1262.7 ± 1.2
318.15 K	843.6 ± 0.14	1220.4 ± 1.2
328.15 K	834.29 ± 0.14	1178.6 ± 1.2

Settings	refractive index
[2]	1.49393 ± 0.00072

Cc1ccccc1 [toluene] + CCCCO
[3], x1 = 1
Settings	mass density [kg/m3]	speed of sound [m/s]
298.15 K	862.19 ± 0.13	1305.4 ± 1.2
308.15 K	852.88 ± 0.14	1262.7 ± 1.2
318.15 K	843.6 ± 0.14	1220.4 ± 1.2
328.15 K	834.29 ± 0.14	1178.6 ± 1.2
